Common to all, as to assay: growth of human tumour cells (NCI), 48 h
The test system of assay [1] is OVCAR-8 ovarian.
Assay [2] has as its system OVCAR-5 ovarian.
The subject of assay [3] is SW-620 colon.
Assay [4] concerns TK-10 renal.
For assay [5], the system named is UACC-62 melanoma.
Assay [6] has as its system OVCAR-4 ovarian.
In assay [7] the test system is K-562 leukemia.
The test system of assay [8] is HCC-2998 colon.
The subject of assay [9] is MALME-3M melanoma.
Assay [10] has as its system HOP-92 NSCLC.

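All cell lines were grown in 96-well plates and treated with compound for 48 hours. GI50: concentration for 50% inhibition of growth. Definition used: TGI = concentration required for complete inhibition of growth.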

As for `C/C(=C(/c1ccc(O)cc1)c1ccc(OCCN2CCCC2)cc1)c1ccccc1`, the GI50 is 5.73 µM in assay [1]; 7.99 µM in assay [2]; 2.28 µM in assay [3]; 4.61 µM in assay [4]; 2.26 µM in [5]; 4.7 µM in assay [6]. For the same molecule, the GI50 was 1.81 µM in assay [7], 2.34 µM in assay [8], 1.7 µM in assay [9] and 2.24 µM in assay [10]. Also, the TGI in assay [1] amounted to 23.1 µM; in [2], 22.5 µM; in assay [3], 5.17 µM; in [4], 16.4 µM; in [5], 4.72 µM; in assay [6] it was 17.5 µM. Also, the TGI amounted to 4.77 µM in [7], 6.18 µM in [8], 3.41 µM in assay [9] and 7.34 µM in assay [10].
Regarding `O=C(CCCCCCCCC(=O)OCC1OC(n2cnc3c(=O)[nH]cnc32)C(O)C1O)OCC1OC(n2cnc3c(=O)[nH]cnc32)C(O)C1O` (centres undefined), the TGI in assay [1], in assay [2], in [3], in assay [4], in [5] and in assay [6] was above 100 µM in each case. Moreover, the TGI in assay [7], in assay [8], in [9] and in assay [10] was above 100 µM in each case.
Regarding `Cc1ccc(NC(=O)CCC(=O)C2CC(=O)CC/C2=N\NC(=O)c2cc3ccccc3cc2O)cc1C` (centres undefined), the TGI in assay [1] was above 100 µM; in [2], 56.8 µM; in [3], above 100 µM; in assay [4] it was above 100 µM; in assay [5], 33.9 µM; in assay [6], 51.4 µM. For the same molecule, the TGI in assay [7] is above 100 µM; in assay [8], 50.1 µM; in [9] it was 90.2 µM; in assay [10] it was above 100 µM.
In the case of `COc1cc2ccn3c4cc(OC)c(OC)cc4cc3c2cc1OC`, the TGI in assay [1], in assay [2], in [3], in [4], in assay [5] and in assay [6] was above 100 µM each time. The TGI in [7], in assay [8], in assay [9] and in assay [10] was above 100 µM in each case.
With `CC1=C(C#N)C(N)=C2C(C)=C(C#N)C(N)=C12`, the TGI in assay [1], in [2], in assay [3], in [4], in assay [5] and in assay [6] was above 100 µM in each case. The TGI in assay [7], in [8], in assay [9] and in assay [10] was above 100 µM each time.
Turning to `CC1CCC(O)C(C(O)CC2CC(=O)N(C)C(=O)C2)C1` (centres undefined), the TGI in assay [1], in assay [2], in assay [3], in assay [4], in assay [5] and in [6] was above 100 µM each time. The TGI in assay [7], in assay [8], in assay [9] and in assay [10] was above 100 µM in each case.
As for `N#CC1c2ccccc2-c2ccccc2N1C(=O)c1ccccc1` (centres undefined), the GI50 in assay [1] is 3.63 µM; in assay [2], 5.37 µM; in [3], 0.585 µM; in assay [4] it was 1.23 µM; in [5] it was 1.9 µM; in assay [6], 3.29 µM. The GI50 is 1.04 µM in assay [7], 2.72 µM in assay [8], 1.22 µM in assay [9] and 2.42 µM in assay [10]. Besides, the TGI in [1] is 96.9 µM; in assay [2], above 100 µM; in [3] it was above 100 µM; in [4], 28.2 µM; in [5], above 38.5 µM; in assay [6], above 72.3 µM. In addition, the TGI in assay [8] amounted to 22.2 µM; in assay [9] it was 54.2 µM; in assay [10] it was 19.9 µM.
Regarding `c1ccc2c(c1)nc(NCCN1CCNCC1)c1c3ccccc3[nH]c21`, the GI50 in assay [1] was 0.111 µM; in assay [2], 0.477 µM; in assay [3], 0.25 µM; in assay [4], 1.34 µM; in assay [5] it was 1.76 µM; in [6] it was 0.379 µM. The GI50 in assay [7] is 0.0935 µM; in assay [8], 0.425 µM; in assay [9], 1.79 µM; in [10] it was 0.43 µM. The TGI in assay [1] came to 0.883 µM; in [2], 3.15 µM; in assay [3] it was 2.54 µM; in [4], 6.91 µM; in [5], 3.69 µM; in assay [6], 2.24 µM. Besides, the TGI in assay [7] worked out at 2.07 µM; in assay [8], 1.68 µM; in assay [9], 3.82 µM; in [10], 2.62 µM.
With `COc1cc(C(c2cc3c(cc2O)OCO3)N2CCCC2)cc(OC)c1OC` (centres undefined), the TGI in [1] was 34 µM; in [2], 89.7 µM; in [3], above 100 µM; in assay [4], 37.5 µM; in assay [5], 33.9 µM; in [6], 34.2 µM. Moreover, the TGI in assay [7] is 21.1 µM; in assay [8], 88.1 µM; in [9] it was 20.7 µM; in assay [10] it was 20 µM.
Consider `O=C1OC(c2ccc(O)cc2)(c2ccc(O)cc2)c2cccc3cccc1c23`, for which the GI50 is 16.7 µM in assay [1]; 16.5 µM in [2]; 15.5 µM in assay [3]; 18 µM in assay [4]; 11.3 µM in [5]; 0.18 µM in [6]. The GI50 in [7] was 15.7 µM; in [8], 15.8 µM; in [9] it was 20 µM; in assay [10] it was 12.2 µM. Moreover, the TGI in [1] was 44.1 µM; in [2] it was 31.7 µM; in [3] it was 33.3 µM; in assay [4] it was 34 µM; in [5] it was 25.7 µM; in assay [6], 17.4 µM. Besides, the TGI is 61.3 µM in [7], 32.5 µM in [8], 43.4 µM in assay [9] and 26.8 µM in assay [10].

The record behind these values is PubChem BioAssay (NCI).
